Laboratory results: ChEMBL document CHEMBL1201862, “PubChem BioAssay data set” (2004)
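Five compound concentrations were applied to cells in 96-well plates for 48 hours; endpoints were derived by simple linear interpolation of the resulting dose-response curve. GI50 is the concentration that inhibits growth by half.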 Calls of active or inactive are those of the source. Rule as the data show it: active = GI50 up to about 1.1 µM and inactive = higher.

Tests used:
Experiment in all cases: inhibition of tumour cell growth, NCI panel, 48 h
ACHN = test system: ACHN
CAKI-1 = test system: CAKI-1
DU-145 = test system: DU-145
HCT-116 = test system: HCT-116
HT-29 = test system: HT-29
IGROV-1 = test system: IGROV-1
K562 = test system: K562
MDA-MB-435 = test system: MDA-MB-435
NCI-H23 = test system: NCI-H23
NCI-H460 = test system: NCI-H460
NCI-H522 = test system: NCI-H522
NCI/ADR-RES = test system: NCI/ADR-RES
OVCAR-4 = test system: OVCAR-4
OVCAR-5 = test system: OVCAR-5
SNB-19 = test system: SNB-19
T47D = test system: T47D
U-251 = test system: U-251
UACC-62 = test system: UACC-62
UO-31 = test system: UO-31

Row | SMILES | GI50 (ACHN) | GI50 (CAKI-1) | GI50 (DU-145) | GI50 (HCT-116) | GI50 (HT-29) | GI50 (IGROV-1) | GI50 (K562) | GI50 (MDA-MB-435) | GI50 (NCI-H23) | GI50 (NCI-H460) | GI50 (NCI-H522) | GI50 (NCI/ADR-RES) | GI50 (OVCAR-4) | GI50 (OVCAR-5) | GI50 (SNB-19) | GI50 (T47D) | GI50 (U-251) | GI50 (UACC-62) | GI50 (UO-31)
1 | CCOC(=O)c1c2c(n(C)c1-c1ccccc1)C(=O)C(C)=CC2=O | 7.28 µM (inactive) | 13.5 µM (inactive) | 17.5 µM (inactive) | 3.6 µM (inactive) | 5.79 µM (inactive) | 5.46 µM (inactive) | 3.44 µM (inactive) | 1.91 µM (inactive) | 11.6 µM (inactive) | 20.8 µM (inactive) | 1.69 µM (inactive) | 7.83 µM (inactive) | 7.05 µM (inactive) | 6.05 µM (inactive) | 13.5 µM (inactive) | 3.13 µM (inactive) | 7.8 µM (inactive) | 10.9 µM (inactive) | 12.2 µM (inactive)
2 | CCOC(=O)NN(C(=O)OCC)C(=C(c1ccccc1)N1CCOCC1)N(NC(=O)OCC)C(=O)OCC | > 100 µM (inactive) | > 100 µM (inactive) | > 100 µM (inactive) | > 100 µM (inactive) | > 100 µM (inactive) | > 100 µM (inactive) | > 100 µM (inactive) | > 100 µM (inactive) | > 100 µM (inactive) | > 100 µM (inactive) | > 100 µM (inactive) | > 100 µM (inactive) | > 100 µM (inactive) | > 100 µM (inactive) | > 100 µM (inactive) | > 100 µM (inactive) | > 100 µM (inactive) | > 100 µM (inactive) | 58.5 µM (inactive)
3 | COc1cc2nc(-c3cccs3)nc(N3C(c4cc(OC)c(OC)c(OC)c4)=NNC(=O)c4ccccc43)c2cc1OC | 44.1 µM (inactive) | 52.8 µM (inactive) | 29 µM (inactive) | > 100 µM (inactive) | 23.3 µM (inactive) | 33.9 µM (inactive) | 8.34 µM (inactive) | 13.9 µM (inactive) | 14 µM (inactive) | 4.82 µM (inactive) | 38 µM (inactive) | 3.4 µM (inactive) | 13.9 µM (inactive) | 21.8 µM (inactive) | 16.4 µM (inactive) | 39 µM (inactive) | 15.8 µM (inactive) | 17.4 µM (inactive) | 27.4 µM (inactive)
4 | COc1cc(C2c3[nH]c4ccccc4c3[C@@H](Nc3ccc(C#N)cc3)[C@H]3COC(=O)N23)cc(OC)c1O (stereo partly specified) | 0.155 µM (active) | 0.213 µM (active) | 0.252 µM (active) | 0.233 µM (active) | 0.3 µM (active) | 0.501 µM (active) | 0.181 µM (active) | 0.388 µM (active) | 0.238 µM (active) | 0.0288 µM (active) | 0.175 µM (active) | 9.98 µM (inactive) | 1.84 µM (inactive) | 0.316 µM (active) | 0.235 µM (active) | 0.345 µM (active) | 0.175 µM (active) | 0.114 µM (active) | 0.802 µM (active)
5 | O=c1c2ccccc2sc2ccccc12 | > 100 µM (inactive) | > 100 µM (inactive) | > 100 µM (inactive) | > 100 µM (inactive) | > 100 µM (inactive) | > 100 µM (inactive) | > 100 µM (inactive) | > 100 µM (inactive) | > 100 µM (inactive) | > 100 µM (inactive) | > 100 µM (inactive) | > 100 µM (inactive) | > 100 µM (inactive) | > 100 µM (inactive) | > 100 µM (inactive) | > 100 µM (inactive) | 14.9 µM (inactive) | > 100 µM (inactive) | > 100 µM (inactive)
6 | CC(C)c1cc(C(C)C)c(B(c2ccccc2)c2ccccc2)c(C(C)C)c1Br | > 100 µM (inactive) | > 100 µM (inactive) | > 100 µM (inactive) | > 100 µM (inactive) | > 100 µM (inactive) | > 100 µM (inactive) | > 100 µM (inactive) | > 100 µM (inactive) | > 100 µM (inactive) | > 100 µM (inactive) | > 100 µM (inactive) | > 100 µM (inactive) | > 100 µM (inactive) | > 100 µM (inactive) | > 100 µM (inactive) | > 100 µM (inactive) | > 100 µM (inactive) | > 100 µM (inactive) | > 100 µM (inactive)
7 | CC(=O)O[C@H]1CC[C@@]2(C)C(=CC[C@H]3[C@@H]4CC[C@H](c5cc(C(F)(F)F)n(C(C)=O)n5)[C@@]4(C)CC[C@@H]32)C1 | 7.8 µM (inactive) | 12 µM (inactive) | 11.4 µM (inactive) | 3.88 µM (inactive) | 4.62 µM (inactive) | 3.84 µM (inactive) | 3.35 µM (inactive) | 9.27 µM (inactive) | 6.05 µM (inactive) | 2.63 µM (inactive) | 17.1 µM (inactive) | 4.83 µM (inactive) | 3.31 µM (inactive) | 9.4 µM (inactive) | 11 µM (inactive) | 6.41 µM (inactive) | 4.79 µM (inactive) | 12 µM (inactive) | 1.67 µM (inactive)
8 | Nc1ccc2c(c1)nc1n2C(c2c(F)cccc2F)SC1 (stereo unspecified) | > 100 µM (inactive) | 53.7 µM (inactive) | > 100 µM (inactive) | > 100 µM (inactive) | > 100 µM (inactive) | > 100 µM (inactive) | > 100 µM (inactive) | > 100 µM (inactive) | > 100 µM (inactive) | > 100 µM (inactive) | > 100 µM (inactive) | > 100 µM (inactive) | > 100 µM (inactive) | > 100 µM (inactive) | > 100 µM (inactive) | 76.4 µM (inactive) | > 100 µM (inactive) | > 100 µM (inactive) | 97.7 µM (inactive)
9 | Cc1c([N+](=O)[O-])oc2ccc3ccccc3c12 | 16.2 µM (inactive) | 11.9 µM (inactive) | 7.74 µM (inactive) | 4.26 µM (inactive) | 14.6 µM (inactive) | 12.1 µM (inactive) | 18.9 µM (inactive) | 12.4 µM (inactive) | 11.2 µM (inactive) | 3.74 µM (inactive) | 3.86 µM (inactive) | 33.4 µM (inactive) | 47.5 µM (inactive) | > 100 µM (inactive) | > 100 µM (inactive) | 61.1 µM (inactive) | 65.6 µM (inactive) | 56.1 µM (inactive) | 34.6 µM (inactive)
10 | Cc1ccc2nc(C(C)C)c(=O)[nH]c2c1 | > 100 µM (inactive) | 43.4 µM (inactive) | > 100 µM (inactive) | > 100 µM (inactive) | > 100 µM (inactive) | > 100 µM (inactive) | > 100 µM (inactive) | > 100 µM (inactive) | > 100 µM (inactive) | > 100 µM (inactive) | 82.8 µM (inactive) | 54.7 µM (inactive) | 71.9 µM (inactive) | > 100 µM (inactive) | > 100 µM (inactive) | > 100 µM (inactive) | 47 µM (inactive) | > 100 µM (inactive) | > 100 µM (inactive)
11 | CN1CCN(C2=NCCO2)CC1 | > 100 µM (inactive) | > 100 µM (inactive) | > 100 µM (inactive) | > 100 µM (inactive) | > 100 µM (inactive) | > 100 µM (inactive) | > 100 µM (inactive) | > 100 µM (inactive) | > 100 µM (inactive) | > 100 µM (inactive) | > 100 µM (inactive) | > 100 µM (inactive) | > 100 µM (inactive) | > 100 µM (inactive) | > 100 µM (inactive) | > 100 µM (inactive) | > 100 µM (inactive) | > 100 µM (inactive) | > 100 µM (inactive)
12 | CC(=O)Nc1ccc2c3c(cc(O)c2c1)N(C(=O)CCCCCCC(=O)Nc1ccc2c4c(cc(O)c2c1)N(C(=O)OC(C)(C)C)CC4CCl)CC3CCl (stereo unspecified) | 0.0484 µM (active) | 1.02 µM (active) | 0.0211 µM (active) | 0.0408 µM (active) | 0.155 µM (active) | 0.0822 µM (active) | 0.117 µM (active) | 0.132 µM (active) | 0.0337 µM (active) | 0.0233 µM (active) | 0.0387 µM (active) | > 35.4 µM (inactive) | 0.218 µM (active) | 0.109 µM (active) | 0.046 µM (active) | 0.0573 µM (active) | 0.0205 µM (active) | 0.0695 µM (active) | 1.04 µM (active)
13 | N/C(=N\Nc1ccc(C(=O)O)cc1)c1cnccn1 | > 100 µM (inactive) | > 100 µM (inactive) | > 100 µM (inactive) | > 100 µM (inactive) | > 100 µM (inactive) | > 100 µM (inactive) | > 100 µM (inactive) | > 100 µM (inactive) | > 100 µM (inactive) | > 100 µM (inactive) | > 100 µM (inactive) | > 100 µM (inactive) | > 100 µM (inactive) | > 100 µM (inactive) | > 100 µM (inactive) | > 100 µM (inactive) | > 100 µM (inactive) | > 100 µM (inactive) | > 100 µM (inactive)
14 | CCOC(=O)C1C(O)CC2c3ccccc3-c3ccccc3C21 (stereo unspecified) | 27.3 µM (inactive) | > 100 µM (inactive) | > 100 µM (inactive) | 19.8 µM (inactive) | 68.1 µM (inactive) | 47.1 µM (inactive) | 96.2 µM (inactive) | 41.8 µM (inactive) | 42.5 µM (inactive) | > 100 µM (inactive) | 35.4 µM (inactive) | 40.5 µM (inactive) | > 100 µM (inactive) | > 100 µM (inactive) | 33.5 µM (inactive) | > 100 µM (inactive) | 23.8 µM (inactive) | 44.4 µM (inactive) | > 100 µM (inactive)
